In the NIST ThermoML archive (doi:10.1021/acs.jced.5b00385):
Numbers after ± are expanded uncertainties.

Conditions: Liquid, Vibrating tube method

FCC(F)(F)F [1,1,1,2-tetrafluoroethane]
Conditions	mass density [kg/m3]
283.46 K, 1000 kPa	1262.57 ± 0.38
283.46 K, 5000 kPa	1279.58 ± 0.4
283.47 K, 10000 kPa	1298.12 ± 0.44
283.47 K, 20000 kPa	1329.18 ± 0.54
283.47 K, 40000 kPa	1377.11 ± 0.84
283.47 K, 60000 kPa	1414.44 ± 1.2
283.47 K, 80000 kPa	1445.46 ± 1.7
303.37 K, 10000 kPa	1236.85 ± 0.42
303.37 K, 20000 kPa	1275.77 ± 0.5
303.38 K, 1000 kPa	1188.07 ± 0.37
303.38 K, 5000 kPa	1212.13 ± 0.38
303.38 K, 40000 kPa	1332.36 ± 0.78
303.38 K, 60000 kPa	1374.64 ± 1.1
303.38 K, 80000 kPa	1408.98 ± 1.7
323.15 K, 3000 kPa	1119.19 ± 0.37
323.16 K, 5000 kPa	1136.38 ± 0.37
323.16 K, 10000 kPa	1170.84 ± 0.4
323.16 K, 20000 kPa	1220.65 ± 0.48
323.16 K, 40000 kPa	1287.71 ± 0.75
323.16 K, 60000 kPa	1335.49 ± 1.1
323.16 K, 80000 kPa	1373.39 ± 1.7
342.97 K, 3000 kPa	1014.76 ± 0.36
342.97 K, 5000 kPa	1045.25 ± 0.36
342.98 K, 10000 kPa	1097.42 ± 0.39
342.98 K, 20000 kPa	1162.91 ± 0.46
342.98 K, 40000 kPa	1242.75 ± 0.73
342.98 K, 80000 kPa	1338.34 ± 1.7
342.99 K, 60000 kPa	1296.65 ± 1.1
362.68 K, 5000 kPa	922.4 ± 0.36
362.68 K, 10000 kPa	1013.83 ± 0.4
362.68 K, 20000 kPa	1102.6 ± 0.47
362.68 K, 40000 kPa	1197.86 ± 0.73
362.68 K, 60000 kPa	1258.47 ± 1.1
362.68 K, 80000 kPa	1304.15 ± 1.8

CCCCC(CC)COC(C)=O (stereo not drawn) [2-ethylhexyl acetate]
Conditions	mass density [kg/m3]
283.45 K, 80000 kPa	925.84 ± 1
283.45 K, 90000 kPa	930.33 ± 1.1
283.45 K, 100000 kPa	934.63 ± 1.1
283.46 K, 100 kPa	880.38 ± 0.91
283.46 K, 1000 kPa	881.05 ± 0.91
283.46 K, 40000 kPa	905.65 ± 0.97
283.46 K, 50000 kPa	911.06 ± 0.99
283.46 K, 60000 kPa	916.18 ± 1
283.46 K, 70000 kPa	921.22 ± 1
283.47 K, 3000 kPa	882.48 ± 0.91
283.47 K, 5000 kPa	883.9 ± 0.91
283.47 K, 30000 kPa	899.95 ± 0.95
283.48 K, 10000 kPa	887.37 ± 0.92
283.48 K, 15000 kPa	890.63 ± 0.93
283.48 K, 20000 kPa	893.87 ± 0.94
283.48 K, 25000 kPa	896.91 ± 0.95
293.44 K, 1000 kPa	872.61 ± 0.9
293.44 K, 3000 kPa	874.12 ± 0.9
293.45 K, 5000 kPa	875.6 ± 0.91
293.45 K, 10000 kPa	879.24 ± 0.92
293.45 K, 15000 kPa	882.73 ± 0.92
293.45 K, 20000 kPa	886.08 ± 0.93
293.45 K, 25000 kPa	889.32 ± 0.94
293.45 K, 30000 kPa	892.46 ± 0.95
293.45 K, 40000 kPa	898.43 ± 0.97
293.45 K, 60000 kPa	909.42 ± 1
293.45 K, 70000 kPa	914.46 ± 1
293.45 K, 80000 kPa	919.33 ± 1
293.45 K, 100000 kPa	928.38 ± 1.1
293.46 K, 100 kPa	871.89 ± 0.9
293.46 K, 50000 kPa	904.07 ± 0.99
293.46 K, 90000 kPa	923.91 ± 1.1
303.38 K, 1000 kPa	863.7 ± 0.89
303.39 K, 3000 kPa	865.32 ± 0.89
303.39 K, 15000 kPa	874.36 ± 0.92
303.39 K, 40000 kPa	890.82 ± 0.97
303.4 K, 5000 kPa	866.89 ± 0.9
303.4 K, 10000 kPa	870.7 ± 0.91
303.4 K, 20000 kPa	877.88 ± 0.93
303.4 K, 25000 kPa	881.31 ± 0.94
303.4 K, 30000 kPa	884.55 ± 0.95
303.4 K, 50000 kPa	896.67 ± 0.98
303.4 K, 60000 kPa	902.22 ± 1
303.4 K, 70000 kPa	907.5 ± 1
303.4 K, 80000 kPa	912.5 ± 1
303.4 K, 90000 kPa	917.28 ± 1.1
303.41 K, 100 kPa	862.94 ± 0.89
303.41 K, 100000 kPa	921.87 ± 1.1
313.34 K, 100 kPa	854.53 ± 0.88
313.34 K, 1000 kPa	855.28 ± 0.88
313.34 K, 3000 kPa	857.04 ± 0.89
313.34 K, 5000 kPa	858.73 ± 0.89
313.34 K, 10000 kPa	862.77 ± 0.9
313.34 K, 15000 kPa	866.66 ± 0.91
313.34 K, 20000 kPa	870.34 ± 0.92
313.34 K, 25000 kPa	873.92 ± 0.93
313.34 K, 30000 kPa	877.34 ± 0.94
313.34 K, 40000 kPa	883.88 ± 0.96
313.34 K, 50000 kPa	889.98 ± 0.98
313.34 K, 60000 kPa	895.7 ± 1
313.34 K, 70000 kPa	901.14 ± 1
313.34 K, 80000 kPa	906.27 ± 1.1
313.34 K, 100000 kPa	915.93 ± 1.1
313.35 K, 90000 kPa	911.19 ± 1.1
323.15 K, 100 kPa	845.74 ± 0.87
323.15 K, 50000 kPa	882.8 ± 0.98
323.15 K, 60000 kPa	888.76 ± 1
323.15 K, 70000 kPa	894.49 ± 1
323.15 K, 80000 kPa	899.83 ± 1.1
323.15 K, 90000 kPa	904.91 ± 1.1
323.15 K, 100000 kPa	909.78 ± 1.1
323.16 K, 1000 kPa	846.56 ± 0.87
323.16 K, 3000 kPa	848.36 ± 0.88
323.16 K, 5000 kPa	850.14 ± 0.88
323.16 K, 10000 kPa	854.42 ± 0.89
323.16 K, 25000 kPa	866.13 ± 0.93
323.16 K, 30000 kPa	869.71 ± 0.94
323.16 K, 40000 kPa	876.47 ± 0.96
323.17 K, 15000 kPa	858.49 ± 0.91
323.17 K, 20000 kPa	862.39 ± 0.92
332.99 K, 100 kPa	836.98 ± 0.86
333 K, 1000 kPa	837.85 ± 0.87
333 K, 3000 kPa	839.78 ± 0.87
333 K, 5000 kPa	841.66 ± 0.88
333 K, 10000 kPa	846.16 ± 0.89
333 K, 15000 kPa	850.47 ± 0.9
333 K, 20000 kPa	854.55 ± 0.91
333 K, 25000 kPa	858.45 ± 0.92
333.01 K, 30000 kPa	862.21 ± 0.93
333.01 K, 40000 kPa	869.27 ± 0.96
333.01 K, 50000 kPa	875.85 ± 0.98
333.01 K, 60000 kPa	882.02 ± 1
333.01 K, 70000 kPa	888.07 ± 1
333.01 K, 80000 kPa	893.58 ± 1.1
333.01 K, 90000 kPa	898.82 ± 1.1
333.01 K, 100000 kPa	903.81 ± 1.1
342.95 K, 100 kPa	828.32 ± 0.86
342.96 K, 1000 kPa	829.27 ± 0.86
342.96 K, 3000 kPa	831.31 ± 0.86
342.96 K, 5000 kPa	833.3 ± 0.87
342.96 K, 10000 kPa	838.06 ± 0.88
342.96 K, 15000 kPa	842.59 ± 0.89
342.96 K, 20000 kPa	846.9 ± 0.91
342.97 K, 25000 kPa	851 ± 0.92
342.97 K, 30000 kPa	854.91 ± 0.93
342.97 K, 40000 kPa	862.31 ± 0.96
342.97 K, 50000 kPa	869.15 ± 0.98
342.97 K, 60000 kPa	875.57 ± 1
342.97 K, 70000 kPa	881.64 ± 1
342.97 K, 80000 kPa	887.28 ± 1.1
342.97 K, 90000 kPa	892.73 ± 1.1
342.97 K, 100000 kPa	897.85 ± 1.1
352.78 K, 100 kPa	819.64 ± 0.85
352.79 K, 1000 kPa	820.65 ± 0.85
352.79 K, 3000 kPa	822.83 ± 0.86
352.79 K, 5000 kPa	824.93 ± 0.86
352.79 K, 10000 kPa	830 ± 0.87
352.79 K, 15000 kPa	834.75 ± 0.89
352.79 K, 20000 kPa	839.27 ± 0.9
352.79 K, 25000 kPa	843.56 ± 0.91
352.79 K, 30000 kPa	847.66 ± 0.93
352.79 K, 40000 kPa	855.34 ± 0.96
352.79 K, 50000 kPa	862.46 ± 0.98
352.79 K, 60000 kPa	869.08 ± 1
352.79 K, 70000 kPa	875.42 ± 1
352.79 K, 90000 kPa	886.84 ± 1.1
352.79 K, 100000 kPa	892.14 ± 1.1
352.8 K, 80000 kPa	881.29 ± 1.1
362.64 K, 100 kPa	810.91 ± 0.84
362.64 K, 1000 kPa	811.97 ± 0.84
362.64 K, 3000 kPa	814.28 ± 0.85
362.64 K, 5000 kPa	816.51 ± 0.85
362.64 K, 10000 kPa	821.85 ± 0.87
362.64 K, 15000 kPa	826.87 ± 0.88
362.64 K, 20000 kPa	831.61 ± 0.9
362.64 K, 25000 kPa	836.09 ± 0.91
362.64 K, 30000 kPa	840.38 ± 0.92
362.64 K, 50000 kPa	855.78 ± 0.98
362.64 K, 60000 kPa	862.65 ± 1
362.64 K, 70000 kPa	869.14 ± 1
362.64 K, 80000 kPa	875.25 ± 1.1
362.64 K, 90000 kPa	880.97 ± 1.1
362.64 K, 100000 kPa	886.45 ± 1.1
362.65 K, 40000 kPa	848.4 ± 0.95
